Assay results: the supplement of paper PMC10307832

Tests used:
Test in all cases: relative viability (nuclei count vs DMSO), 5 days (fraction); higher = more cells survive
[1] = compound: CCOC1=CC=CC=C1N=NC2=C(NN(C2=O)C3=NC(=CS3)C4=CC=CC=C4)C [BAM7] + CC(C)C[C@H](NC(=O)[C@H](Cc1ccccc1)NC(=O)c1cnccn1)B(O)O [Bortezomib] (partner 0.002 µM)
Summary of the method: (§1)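 After 5 days of treatment, lung cancer cells in 1536-well plates were fixed and stained in a single step (final 0.05% Triton X-100, 1% formaldehyde, 1 ug/ml Hoechst) and their nuclei counted on 4× images. Treatment had been applied by pin tool the day after seeding as one drug alone or as a fixed anchor-drug dose with five library-drug doses (not always all listed) in √10 steps. Relative viability is the nuclei count of treated wells divided by that of vehicle wells, and values are medians of duplicate plates.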

[2] = compound: CCn1c(-c2nonc2N)nc2c(C#CC(C)(C)O)ncc(OC[C@H]3CCCNC3)c21 + NC(=O)Nc1cc(-c2cccc(F)c2)sc1C(=O)N[C@H]1CCCNC1 [AZD7762] (partner 0.2 µM)
Summary of the method: as §1

[3] = compound: CCOC1=CC=CC=C1N=NC2=C(NN(C2=O)C3=NC(=CS3)C4=CC=CC=C4)C [BAM7] + O=C(CCCCCCC(=O)Nc1ccccc1)NO [Vorinostat] (partner 1 µM)
Summary of the method: as §1

[4] = compound: CCn1c(-c2nonc2N)nc2c(C#CC(C)(C)O)ncc(OC[C@H]3CCCNC3)c21 + N=C(N)NC(=N)NCCc1ccccc1 [Phenformin] (partner 250 µM)
Summary of the method: as §1

Cell Line	relative viability ([1]; first compound 0.5 µM)	relative viability ([1]; first compound 5 µM)	relative viability ([1]; first compound 15.81 µM)	relative viability ([1]; first compound 50 µM)	relative viability ([2]; first compound 0.01 µM)	relative viability ([2]; first compound 0.03162 µM)	relative viability ([2]; first compound 0.1 µM)	relative viability ([2]; first compound 0.3162 µM)	relative viability ([2]; first compound 1 µM)	relative viability ([3]; first compound 0.5 µM)	relative viability ([3]; first compound 5 µM)	relative viability ([3]; first compound 15.81 µM)	relative viability ([3]; first compound 50 µM)	relative viability ([4]; first compound 0.01 µM)	relative viability ([4]; first compound 0.03162 µM)	relative viability ([4]; first compound 0.1 µM)	relative viability ([4]; first compound 0.3162 µM)	relative viability ([4]; first compound 1 µM)
NCI-H1734	1.13	1.12	0.888	0.978	0.66	0.581	0.452	0.548	0.504	0.841	0.903	0.812	0.832	0.365	0.425	0.335	0.323	0.267
LXF-289	1.07	1.1	1.02	1.01	1.2	1.15	1.11	1.06	1.1	0.82	0.92	0.84	0.7	0.511	0.54	0.507	0.511	0.534
H3255	0.674	0.798	0.7	0.624	0.857	0.943	1	0.839	0.846	0.819	0.763	0.733	0.811	0.403	0.406	0.342	0.338	0.329
201T	1.05	1.13	0.925	0.987	0.679	0.713	0.628	0.51	0.68	0.797	0.78	0.716	0.71	0.455	0.438	0.437	0.435	0.431
NCI-H2126	1.07	1	1.08	1.08	0.995	0.982	1	1.02	1.04	0.719	0.597	0.635	0.664	0.565	0.498	0.513	0.496	0.478
HOP-62	0.854	0.98	1.05	0.847	0.761	0.677	0.732	0.577	0.516	0.682	0.661	0.591	0.694	0.662	0.687	0.635	0.649	0.687
CAL-12T	0.986	0.97	1	1.09	0.556	0.651	0.567	0.624	0.708	0.794	0.788	0.751	0.655	0.506	0.579	0.588	0.554	0.469
NCI-H1755	1.02	1.01	0.949	0.95	0.501	0.418	0.382	0.406	0.425	0.751	0.867	0.79	0.844	0.604	0.606	0.614	0.613	0.605
